# Bridges are numbered along the chain shown (N, C = ends). Where no end group is shown, it is not given here.
# Tests used:
# alopecia = assay: Conclusions from case test results (all types of alopecia); format: in vivo, human; details: external application; for Adverse events resulting from application: all cases
# Method: (§1) The test subjects were patients with alopecia areata, androgenetic alopecia, postpartum alopecia, female pattern alopecia, alopecia pityroides, and senile alopecia. Diagnosis and treatment of these test subjects were carried out by the present inventors as physicians.
# (§2) In general, in order to confirm the effect of an external medicine in an individual case, a method involving separate left and right applications is desirable. The separate left and right application method is a method in which, for example, an external medicine containing an active ingredient to be tested is applied to the left-hand side of an affected site, and an external medicine not containing the active ingredient is applied to the right-hand side, thus enabling a therapeutic effect to be confirmed. With regard to the test of the preparation of the present invention, a preparatory test was carried out in accordance with the separate left and right applications method. However, taking into consideration medical ethics, the preparatory test in accordance with the separate left and right applications method was minimized, and when a preparatory test was not carried out, a therapeutic effect was evaluated by comparison between that before application and that after application.
# (§3) In order to carry out evaluation objectively, photographs before and after application of the NP preparation were recorded in all cases. Photographs of some of these cases are shown in the drawings.
# androgenetic alopecia [1] = details: androgenetic alopecia in males; cited from earlier work
# androgenetic alopecia [2] = assay: Case tests: application to hair loss sites of androgenetic alopecia patients; format: in vivo, human
# Method: as §1
# (§4) Clinical classification of alopecia was carried out in accordance with the Classification of the Japanese Dermatological Association, and evaluation of the severity of alopecia areata was carried out in accordance with the above-mentioned ‘USA Alopecia Areata Evaluation Guidelines’, the area of hair loss being classified using 6 grades of S0 to S5 and the hair loss site being classified using 3 grades of B0 to B2.
# as §2, with “The separate left and right application method is a method in which, for example, an external medicine containing an active ingredient to be tested is applied to the left-hand side of an affected site, and an external medicine not containing the active ingredient is applied to the right-hand side, thus enabling a therapeutic effect to be confirmed.” left out
# Prior to administration of the ANP gel, BNP gel, CNP gel, BNP ointment, and CNP ointment of the present invention, as is routine for dermatological diagnosis and treatment, the test subjects were interviewed regarding age, gender, history of disease, and family history of disease; when an allergic predisposition was suspected, a scratch test against the main allergens and an evaluation thereof were carried out.
# as §3
# female pattern alopecia = assay: Case tests: application to thinning hair sites of female pattern alopecia patients; format: in vivo, human; details: previous treatment
# Method: as §1
# as §2, with “application. […]” for “application.”
# (§5) In order to carry out evaluation objectively, photographs before and after application of the NP preparation were recorded in all cases. […]
# postpartum alopecia = assay: Case tests: application to hair loss sites of postpartum alopecia patients; format: in vivo, human; details: case C18
# Method: as §1
# as §2, with “application. […]” for “application.”
# as §5
# alopecia pityroides = assay: Case tests: application to hair loss sites of alopecia pityroides patients; format: in vivo, human; details: previous treatment
# Method: as §1, §2
# Prior to administration of the ANP gel, BNP gel, CNP gel, BNP ointment, and CNP ointment of the present invention, as is routine for dermatological diagnosis and treatment, the test subjects were interviewed regarding age, gender, history of disease, and family history of disease; when an allergic predisposition was suspected, a scratch test against the main allergens and an evaluation thereof were carried out. In dermatological diagnosis and treatment, since there are a relatively large number of patients who have strong immunoreactivity toward a specific allergen, or a disease such as atopic dermatitis that is suspected to be related to having an allergic predisposition, in order to assist diagnosis, an interview with respect to family history and previous history of allergic disease in addition to gender and age, and a scratch test toward the main allergens, are widely carried out as simple supplemental test methods.
# Table 1 to Table 23 show the results of interviews with the test subjects and the results of the scratch test together with evaluation of the diagnostic findings and symptoms of the test subjects carried out in [Example 1] above.
# as §3
# alopecia areata = assay: Case tests: application to bald areas of alopecia areata patients; format: in vivo, human; details: previous treatment of the test subject (history); one value per case
# Method: as §1, §4
# In general, in order to confirm the effect of an external medicine in an individual case, a method involving separate left and right applications is desirable. […] However, taking into consideration medical ethics, the preparatory test in accordance with the separate left and right applications method was minimized, and when a preparatory test was not carried out, a therapeutic effect was evaluated by comparison between that before application and that after application. […]
# as §5
# [3] = system: cancer chemotherapy drug-induced alopecia; assay: Case tests: application to hair loss sites of cancer chemotherapy drug-induced alopecia patients; format: in vivo, human
# seborrheic alopecia = assay: Case tests: application to hair loss sites of seborrheic alopecia patients; format: in vivo, human; details: previous treatment
# thin head hair = details: applied twice a day after hair washing; cited from earlier work
# [4] = case C35, previous treatment (interview)
# [5] = previous treatment of the test subject (history), one value per case
molecule,measurement,setting,value
"CC[C@H](C)[C@@H]1NC(=O)[C@H](CCCNC(=N)N)NC(=O)[C@H](CC(=O)O)NC(=O)[C@H](CCSC)NC(=O)[C@H](CCCCN)NC(=O)[C@H](CCCNC(=N)N)NC(=O)CNC(=O)[C@H](Cc2ccccc2)NC(=O)[C@@H](NC(=O)CNC(=O)[C@H](CO)NC(=O)CNC(=O)[C@H](CCC(N)=O)NC(=O)[C@@H](NC(=O)[C@H](CCSC)NC(=O)[C@H](CCCCN)NC(=O)[C@@H]2CCCN2C(=O)[C@@H](N)CO)C(C)C)CSSC[C@@H](C(=O)N[C@@H](CCCCN)C(=O)N[C@H](C(=O)N[C@@H](CC(C)C)C(=O)N[C@@H](CCCN=C(N)N)C(=O)N[C@@H](CCCN=C(N)N)C(=O)N[C@@H](Cc2cnc[nH]2)C(=O)O)C(C)C)NC(=O)CNC(=O)[C@H](CC(C)C)NC(=O)CNC(=O)[C@H](CO)NC(=O)[C@H](CO)NC(=O)[C@H](CO)NC(=O)[C@H](CO)NC1=O [BNP, human BNP-32]",Adverse events resulting from application,alopecia,"did not exhibit any adverse events such as local symptoms of irritation, skin atrophy, or an itching sensation"
"CC[C@H](C)[C@@H]1NC(=O)[C@H](CCCNC(=N)N)NC(=O)[C@H](CC(=O)O)NC(=O)[C@H](CC(C)C)NC(=O)[C@H](CCCCN)NC(=O)[C@H](CC(C)C)NC(=O)CNC(=O)[C@H](Cc2ccccc2)NC(=O)[C@@H](NC(=O)CNC(=O)[C@H](CCCCN)NC(=O)[C@H](CO)NC(=O)[C@H](CC(C)C)NC(=O)CN)CSSC[C@@H](C(=O)O)NC(=O)CNC(=O)[C@H](CC(C)C)NC(=O)CNC(=O)[C@H](CO)NC(=O)[C@H](CCSC)NC(=O)[C@H](CO)NC(=O)CNC1=O [CNP, human CNP-22]",Adverse events resulting from application,alopecia,"did not exhibit any adverse events such as local symptoms of irritation, skin atrophy, or an itching sensation"
"CC(C)(C)NC(=O)[C@H]1CC[C@H]2[C@@H]3CC[C@H]4NC(=O)C=C[C@]4(C)[C@H]3CC[C@]12C [Finasteride, finasteride]",Proportion of patients improved,androgenetic alopecia [1],about ¼
O=C(O)CCCC[C@@H]1SC[C@@H]2NC(=O)N[C@@H]21 [biotin],Effect of conventional preparation,"androgenetic alopecia [2]; previous treatment, cases C39, C26, B29",there had been no effect
COC(=O)CCC[N+](C)(C)C.[Cl-] [carpronium chloride],Effect of carpronium chloride,female pattern alopecia; case C19,No effect
same,Effect of conventional preparation,"female pattern alopecia; cases B20, C19",there had been no effect
same,Effect of carpronium chloride,postpartum alopecia; previous treatment,No effect
same,Effect of conventional preparation,postpartum alopecia; previous treatment for 5 months,thinning hair on the crown had not improved
same,Effect of carpronium chloride,"alopecia pityroides; case A13 (=A6, C3, C4)",No effect
same,Effect of carpronium chloride,alopecia pityroides; case C30,No effect
same,Effect of carpronium chloride,alopecia pityroides; case C33,No effect
same,Effect of carpronium chloride,alopecia areata,No effect
same,Effect of carpronium chloride,[3]; [4],No effect
same,Effect of conventional preparation,"[3]; case C35, previous application for 6 months",There had been no effect
same,Effect of carpronium chloride,"seborrheic alopecia; case B21 (=A8, B8)",No effect
COc1ccc2cc1Oc1ccc(cc1)C[C@H]1c3c(cc4c(c3Oc3cc5c(cc3OC)CCN(C)[C@@H]5C2)OCO4)CCN1C [cepharanthin],Effect of cepharanthin,alopecia areata,there had been no therapeutic effect
same,Effect of cepharanthin,[3]; [4],No effect
CC1(C)[C@@H](O)CC[C@]2(C)[C@H]3C(=O)C=C4[C@@H]5C[C@@](C)(C(=O)O)CC[C@]5(C)CC[C@@]4(C)[C@]3(C)CC[C@@H]12 [glycyrrhetinic acid],Effect of glycyrrhetinic acid,androgenetic alopecia [2]; [5],there had been no effect
same,Effect of glycyrrhetinic acid,"seborrheic alopecia; case A12 (=A9, B11)",No effect
same,Effect of glycyrrhetinic acid,"seborrheic alopecia; case B22 (=A9, B11)",No effect
Nc1cc(N2CCCCC2)nc(N)[n+]1[O-] [minoxidil],Effect of minoxidil,"androgenetic alopecia [2]; case B9, previous treatment",No effect
same,Effect of minoxidil,"androgenetic alopecia [2]; case C16, previous treatment",No effect
same,Effect of minoxidil,androgenetic alopecia [2]; [5],No effect
same,Effect of minoxidil,alopecia pityroides; case B28,No effect
same,Effect of minoxidil,"seborrheic alopecia; case A12 (=A9, B11)",No effect
same,Effect of minoxidil,"seborrheic alopecia; case B22 (=A9, B11)",No effect
human ANP(1-28) (SLRRSSCFGGRMDRIGAQSGLGCNSFRY; disulfide 7-23; listed as Homo sapiens),Hair growth,thin head hair,downy hair-like hair growth was observed on the frontal region with 1 week of ANP administration
same,"Therapeutic effect, conclusions from case test results",alopecia; agent containing the peptide as an active ingredient,"effective only for alopecia in which there was no erythema, scale, seborrheic desquamation, etc. on the scalp"

# From US9808511B2, “Method for treating alopecia with B-type natriuretic peptide” (IGISU Co., Ltd., priority 2011, dated 2017)
